Here are results for one compound from PMC6934184, “Selective DNA-PKcs inhibition extends the therapeutic index of localized radiotherapy and chemotherapy” (The Journal of Clinical Investigation, 2019).

The assay has as its target T1, EPHA5 (Homo sapiens, UniProt P54756).
T1 construct: purchased Thermo Fisher Scientific (Life Technologies) SelectScreen
In words: SelectScreen Z'LYTE. It counts as biochemical. An outline of the steps: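 Percent values come from Thermo SelectScreen profiling of NU5455, combining activity and binding assays. CSF1R was run in Z'LYTE format at Km app ATP, and CAMK1 in Adapta format with ATP listed at 10.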

T1 sequence (P54756 25-1037): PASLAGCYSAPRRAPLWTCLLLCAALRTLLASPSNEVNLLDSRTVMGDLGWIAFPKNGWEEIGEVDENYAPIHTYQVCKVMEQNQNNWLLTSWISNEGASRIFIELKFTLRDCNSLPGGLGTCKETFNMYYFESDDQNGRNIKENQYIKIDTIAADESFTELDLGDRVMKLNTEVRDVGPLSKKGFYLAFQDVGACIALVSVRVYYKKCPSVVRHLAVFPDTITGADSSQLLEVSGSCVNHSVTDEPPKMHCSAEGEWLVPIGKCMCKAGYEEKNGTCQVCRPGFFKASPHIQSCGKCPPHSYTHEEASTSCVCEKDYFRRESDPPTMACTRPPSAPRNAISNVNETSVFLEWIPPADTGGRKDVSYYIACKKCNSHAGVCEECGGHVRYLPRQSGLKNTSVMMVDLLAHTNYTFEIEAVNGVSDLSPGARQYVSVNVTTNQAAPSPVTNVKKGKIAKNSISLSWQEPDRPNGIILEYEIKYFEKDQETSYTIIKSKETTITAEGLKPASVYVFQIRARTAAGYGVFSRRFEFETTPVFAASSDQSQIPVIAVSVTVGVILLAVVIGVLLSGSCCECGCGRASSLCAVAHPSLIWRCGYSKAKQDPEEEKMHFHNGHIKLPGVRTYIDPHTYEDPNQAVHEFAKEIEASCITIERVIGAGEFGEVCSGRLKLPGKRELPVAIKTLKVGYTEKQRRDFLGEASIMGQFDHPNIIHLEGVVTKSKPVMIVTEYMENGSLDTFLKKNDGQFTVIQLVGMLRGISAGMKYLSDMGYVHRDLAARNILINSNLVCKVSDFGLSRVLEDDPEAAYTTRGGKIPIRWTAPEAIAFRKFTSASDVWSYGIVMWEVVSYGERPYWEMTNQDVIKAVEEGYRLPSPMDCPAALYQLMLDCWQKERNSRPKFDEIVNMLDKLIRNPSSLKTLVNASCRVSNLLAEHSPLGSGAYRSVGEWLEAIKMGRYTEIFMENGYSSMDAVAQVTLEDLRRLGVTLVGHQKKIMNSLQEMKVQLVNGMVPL

With `CN(C(=O)CN1CCOCC1)c1ccc2sc3c(-c4cccc5c(=O)cc(N6CC7CCC(C6)O7)oc45)cccc3c2c1` [NU5455], the inhibition (usually the share of the control response that was lost under treatment) at 1 µM came to 5.1%.
